Here are results for 25 compounds from US7022696B2, “Piperazino-derivatives and their use as PDE4 inhibitor” (Altana Pharma AG, priority 2001, dated 2006).

Structures are written as SMILES. Where a name gives a salt, the structure may show the parent alone.

Broadly, the melting point is the temperature, or range, at which the solid turns liquid.

With `CCOc1ccc(C2=NN(c3ccc(S(=O)(=O)N4CCN(c5ccccn5)CC4)cc3)C(=O)[C@H]3CC=CC[C@@H]23)cc1OCC` (relative stereo) [Compound 6, (cis)-4-(3,4-Diethoxyphenyl)-2-[4-(4-pyridin-2-yl-piperazine-1-sulfonyl)-phenyl]-4a,5,8,8a-tetrahydro-2H-phthalazin-1-one], the melting point lay within 181 to 182 °C.

In the case of `COc1ccc(C2=NN(c3ccc(C(=O)N4CCN(CCCN(C)C)CC4)cc3)C(=O)[C@@H]3CC=CC[C@H]23)cc1OC.Cl.Cl` [Compound 13, (4aS,8aR)-4-(3,4-Dimethoxyphenyl)-2-(4-{1-[4-(3-dimethylamino-propyl)-piperazin-1-yl]-methanoyl}-phenyl)-4a,5,8,8a-tetrahydro-2H-phthalazin-1-one dihydrochloride], the melting point is 223 to 226 °C.

For `CCOc1ccc(C2=NN(c3ccc(C(=O)N4CCN(CCN5CCOCC5)CC4)cc3)C(=O)[C@@H]3CC=CC[C@H]23)cc1OCC.Cl.Cl`, the melting point is 255 °C (dec.).

The compound `CCOc1ccc(C2=NN(c3ccc(C(=O)N4CCN(CC5CCCO5)CC4)cc3)C(=O)[C@@H]3CC=CC[C@H]23)cc1OCC.Cl` (stereo partly drawn) [Compound 23, (4aS,8aR)-4-(3,4-Diethoxy-phenyl)-2-(4-{1-[4-(tetrahydro-furan-2-ylmethyl)-piperazin-1-yl]-methanoyl}-phenyl)-4a,5,8,8a-tetrahydro-2H-phthalazin-1-one hydrochloride] had a melting point of 131 to 133 °C.

`CCOc1ccc(C2=NN(c3ccc(C(=O)N4CCN(c5ccccn5)CC4)cc3)C(=O)[C@@H]3CC=CC[C@H]23)cc1OCC` [Compound 2, (4aS,8aR)-4-(3,4-Diethoxyphenyl)-2-{4-[1-(4-pyridin-2-yl-piperazin-1-yl)-methanoyl]-phenyl}-4a,5,8,8a-tetrahydro-2H-phthalazin-1-one] had a melting point of 183 to 184 °C.

On to `COc1ccc(C2=NN(c3ccc(C(=O)N4CCN(CCN(C)C)CC4)cc3)C(=O)C3CC=CCC23)c2c1OC(C)(C)C2` (as salt: hydrochloride) [Compound 14, (4aS,8aR)-2-{4-[4-(2-Dimethylamino-ethyl)-piperazine-1-carbonyl]-phenyl}-4-(7-methoxy-2,2-dimethy-2,3-dihydro-benzofuran-4-yl)-4a,5,8,8a-tetrahydro-2H-phthalazin-1-one dihydrochloride], for which the melting point was 245 °C (dec.).

For the compound `CCOc1ccc(C2=NN(c3ccc(C(=O)N4CCN(C=O)CC4)cc3)C(=O)[C@@H]3CC=CC[C@H]23)cc1OCC` [Compound 5, 4-(1-{4-[(4aS,8aR)-4-(3,4-Diethoxyphenyl)-1-oxo-4a,5,8,8a-tetrahydro-1H-phthalazin-2-yl]-phenyl}-methanoyl)-piperazine-1-carbaldehyde], the melting point was in the range of 143 to 144 °C.

In turn, `CCOc1ccc(C2=NN(c3ccc(C(=O)N4CCN(c5cnn(-c6ccccc6)c(=O)c5Cl)CC4)cc3)C(=O)[C@@H]3CC=CC[C@H]23)cc1OCC` [Compound 12, (4aS,8aR)-2-{4-[4-(5-Chloro-6-oxo-1-phenyl-1,6-dihydro-pyridazin-4-yl)-piperazine-1-carbonyl]-phenyl}-4-(3,4-diethoxy-phenyl)-4a,5,8,8a-tetrahydro-2H-phthalazin-1-one] had a melting point of 148 to 151 °C.

As for `COc1ccc(C2=NN(Cc3ccc(C(=O)N4CCN(c5cnccn5)CC4)cc3)C(=O)[C@H]3CC=CC[C@@H]23)c2c1OC(C)(C)C2.Cl.Cl` (relative stereo), the melting point was 124 to 126 °C.

Turning to `CCOc1ccc(C2=NN(c3ccc(C(=O)N4CCN(C5CCN(C)CC5)CC4)cc3)C(=O)[C@@H]3CC=CC[C@H]23)cc1OCC.Cl.Cl` [Compound 28, (4aS,8aR)-4-(3,4-Diethoxy-phenyl)-2-(4-{1-[4-(1-methyl-piperidin-4-yl)-piperazin-1-yl]-methanoyl}-phenyl)-4a,5,8,8a-tetrahydro-2H-phthalazin-1-one dihydrochloride], the melting point is 275 °C (dec.).

On to `COc1ccc(C2=NN(c3ccc(C(=O)N4CCN(CCCN(C)C)CC4)cc3)C(=O)[C@@H]3CC=CC[C@H]23)c2c1OC(C)(C)C2.Cl.Cl` [Compound 11, (4aS,8aR)-2-(4-{1-[4-(3-Dimethylamino-propyl)-piperazin-1-yl]-methanoyl}-phenyl)-4-(7-methoxy-2,2-dimethyl-2,3-dihydro-benzofuran-4-yl)-4a,5,8,8a-tetrahydro-2H-phthalazin-1-one dihydrochloride], for which the melting point was 262 °C (dec.).

As to `CCOc1ccc(C2=NN(c3ccc(C(=O)N4CCN(Cc5ccncc5)CC4)cc3)C(=O)[C@@H]3CC=CC[C@H]23)cc1OCC.Cl.Cl` [Compound 25, (4aS,8aR)-4-(3,4-Diethoxy-phenyl)-2-{4-[1-(4-pyridin-4-ylmethyl-piperazin-1-yl)-methanoyl]-phenyl}-4a,5,8,8a-tetrahydro-2H-phthalazin-1-one dihydrochloride], the melting point was 83 to 85 °C.

Take `COc1ccc(C2=NN(c3ccc(C(=O)N4CCN(C/C=C/c5ccccc5)CC4)cc3)C(=O)[C@@H]3CC=CC[C@H]23)c2c1OC(C)(C)C2.Cl` [Compound 8, (4aS,8aR)-4-(7-methoxy-2,2-dimethyl-2,3-dihydro-benzofuran-4-yl)-2-(4-{1-[4-((E)-3-phenyl-allyl)-piperazin-1-yl]-methanoyl}-phenyl)-4a,5,8,8a-tetrahydro-2H-phthalazin-1-one hydrochloride]: the melting point was 230 to 231 °C.

In the case of `COc1ccc(C2=NN(c3ccc(C(=O)N4CCN(c5ccccc5)CC4)cc3)C(=O)[C@@H]3CC=CC[C@H]23)c2c1OC(C)(C)C2` [Compound 10, (4aS,8aR)-4-(7-Methoxy-2,2-dimethyl-2,3-dihydro-benzofuran-4-yl)-2-{4-[1-(4-phenyl-piperazin-1-yl)-methanoyl]-phenyl}-4a,5,8,8a-tetrahydro-2H-phthalazin-1-one], the melting point fell in the range of 185 to 186 °C.

`CCOc1ccc(C2=NN(c3ccc(C(=O)N4CCN(c5ccncc5)CC4)cc3)C(=O)[C@@H]3CC=CC[C@H]23)cc1OCC.Cl` [Compound 27, (4aS,8aR)-4-(3,4-Diethoxy-phenyl)-2-{4-[1-(4-pyridin-4-yl-piperazin-1-yl)-methanoyl]-phenyl}-4a,5,8,8a-tetrahydro-2H-phthalazin-1-one hydrochloride]: the melting point lay within 164 to 167 °C.

`CCOc1ccc(C2=NN(c3ccc(C(=O)N4CCN(C(=O)c5ccco5)CC4)cc3)C(=O)[C@@H]3CC=CC[C@H]23)cc1OCC` [Compound 4, (4aS,8aR)-4-(3,4-Diethoxyphenyl)-2-(4-{1-[4-(1-furan-2-yl-methanoyl)-piperazin-1-yl]-methanoyl}-phenyl)-4a,5,8,8a-tetrahydro-2H-phthalazin-1-one] registered a melting point of 114 to 115 °C.

As to `CCOc1ccc(C2=NN(c3ccc(C(=O)N4CCN(c5cc(C)nc6ccccc56)CC4)cc3)C(=O)[C@@H]3CC=CC[C@H]23)cc1OCC.Cl` [Compound 26, (4aS,8aR)-4-(3,4-Diethoxy-phenyl)-2-(4-{1-[4-(2-methyl-quinolin-4-yl)-piperazin-1-yl]-methanoyl}-phenyl)-4a,5,8,8a-tetrahydro-2H-phthalazin-1-one hydrochloride], the melting point was 203 to 206 °C (dec.).

In turn, `CCOc1ccc(C2=NN(c3ccc(C(=O)N4CCN(c5ccc([N+](=O)[O-])cn5)CC4)cc3)C(=O)C3CC=CCC23)cc1OCC` (as salt: hydrochloride) [Compound 18, (4aS,8aR)-4-(3,4-Diethoxyohenyl)-2-(4-{1-[4-(5-nitro-pyridin-2-yl)-piperazin-1-yl]-methanoyl}-phenyl)-4a,5,8,8a-tetrahydro-2H-phthalazin-1-one hydrochloride] came in with a melting point of 117 to 118 °C.

As for `COc1ccc(C2=NN(c3ccc(C(=O)N4CCN(c5nc(-c6ccccc6C)ns5)CC4)cc3)C(=O)[C@@H]3CC=CC[C@H]23)cc1OC.Cl` [Compound 19, (4aS,8aR)-4-(3,4-Dimethoxyphenyl)-2-(4-{1-[4-(3-o-tolyl-1,2,4-thiadiazol-5-yl)-piperazin-1-yl]-methanoyl}-phenyl)-4a,5,8,8a-tetrahydro-2H-phthalazin-1-one hydrochloride], the melting point was 115 to 118 °C.

The compound `CCOc1ccc(C2=NN(c3ccc(C(=O)N4CCN(CCCN5CCOCC5)CC4)cc3)C(=O)[C@@H]3CC=CC[C@H]23)cc1OCC.Cl.Cl` [Compound 22, (4aS,8aR)-4-(3,4-Diethoxy-phenyl)-2-(4-{1-[4-(3-morpholin-4-yl-propyl)-piperazin-1-yl]-methanoyl}-phenyl)-4a,5,8,8a-tetrahydro-2H-phthalazin-1-one dihydrochloride] showed a melting point of 170 to 171 °C.

The compound `COc1ccc(C2=NN(c3ccc(C(=O)N4CCN(CC(=O)N5CCOCC5)CC4)cc3)C(=O)[C@@H]3CC=CC[C@H]23)cc1OC.Cl` gave a melting point of 168 to 169 °C.

For the compound `COc1ccc(C2=NN(c3ccc(C(=O)N4CCN(c5c(Cl)cncc5Cl)CC4)cc3)C(=O)[C@@H]3CC=CC[C@H]23)cc1OC` [Compound 15, (4aS,8aR)-2-(4-{1-[4-(3,5-Dichloropyridin-4-yl)-piperazin-1-yl]-methanoyl}-phenyl)-4-(3,4-dimethoxyphenyl)-4a,5,8,8a-tetrahydro-2H-phthalazin-1-one], the melting point was 137 to 139 °C.

`COc1ccc(C2=NN(c3ccc(C(=O)N4CCN(C(=O)c5ccco5)CC4)cc3)C(=O)C3CC=CCC23)c2c1OC(C)(C)C2` [Compound 9, (4aS,8aR)-2-(4-{1-[4-(1-furan-2-yl-methanoyl)-piperazin-1-yl]-methanoyl}-phenyl)-4-(7-methoxy-2,2-dimethyl-2,3-dihydrobenzofuran-4-yl)-4a,5,8,8a-tetrahydro-2-phthalazin-1-one] registered a melting point of 138 to 140 °C.

Compound `CCOc1ccc(C2=NN(c3ccc(C(=O)N4CCN(c5ccc(C(F)(F)F)cn5)CC4)cc3)C(=O)[C@@H]3CC=CC[C@H]23)cc1OCC` [Compound 29, (4aS,8aR)-4-(3,4-Diethoxy-phenyl)-2-(4-{1-[4-(5-trifluoromethyl-pyridin-2-yl)-piperazin-1-yl]-methanoyl}-phenyl)-4a,5,8,8a-tetrahydro-2H-phthalazin-1-one] returned a melting point of 121 to 123 °C.

Consider `COc1ccc(C2=NN(c3ccc(C(=O)N4CCN(CC(=O)N5CCCC5)CC4)cc3)C(=O)[C@@H]3CC=CC[C@H]23)cc1OC.Cl`, for which the melting point lay within 160 to 161 °C.
